Patent US20240365781A1, “SYNERGISTICALLY EFFECTIVE HERBICIDE COMPOSITION COMPRISING PELARGONIC ACID AND FLAZASULFURON” (Belchim Crop Protection NV, priority 2017, published 2024)

Tests used:
Assay in all cases: post-emergence field trial under rows of apple trees, 150-200 L water/ha (Examples 10-12)
Format in all cases: in vivo
[1] = system: Capsella bursa-pastoris
Procedure: (§1) Herbicidal activity was determined by performing a post-emergence test. […] The corresponding mixture was in the form of a spray solution. Besides, spray solutions of individual compositions comprising pelargonic acid or flazasulfuron were used.
(§2) The spray solution was applied on plants of unwanted vegetation present on fields where perennial crops were grown.
(§3) After 5 to 88 days after application of the spray solution, the degree of damage to the unwanted vegetation is rated in % of plants of unwanted vegetation that were killed. Tests were performed on test fields (field trials).

[2] = system: Trifolium repens
Procedure: as §1, §2, §3

[3] = system: Chenopodium album
Procedure: as §1, §2, §3

[4] = system: Senecio vulgaris
Procedure: as §1, §2, §3

[5] = system: Setaria viridis
Procedure: as §1, §2, §3

[6] = system: Lolium multiflorum
Procedure: as §1, §2, §3

What does the source list for `CCCCCCCCC(=O)O` [Pelargonic acid, nonanoic acid]?
herbicidal effect (%) ([1]; Capsella bursa-pastoris/6 d, 5440 g of active compound/ha): 18%; herbicidal effect (%) ([1]; Capsella bursa-pastoris/6 d, 8160 g of active compound/ha): 45%; herbicidal effect (%) ([1]; Capsella bursa-pastoris/6 d, 10880 g of active compound/ha): 45%; herbicidal effect (%) ([1]; Capsella bursa-pastoris/16 d, 5440 g of active compound/ha): 53%; herbicidal effect (%) ([1]; Capsella bursa-pastoris/16 d, 8160 g of active compound/ha): 40%; herbicidal effect (%) ([1]; Capsella bursa-pastoris/16 d, 10880 g of active compound/ha): 55%; herbicidal effect (%) ([1]; Capsella bursa-pastoris/30 d, 5440 g of active compound/ha): 55%; herbicidal effect (%) ([1]; Capsella bursa-pastoris/30 d, 8160 g of active compound/ha): 53%; herbicidal effect (%) ([1]; Capsella bursa-pastoris/30 d, 10880 g of active compound/ha): 60%; herbicidal effect (%) ([1]; Capsella bursa-pastoris/57 d, 5440 g of active compound/ha): 0%; herbicidal effect (%) ([1]; Capsella bursa-pastoris/57 d, 8160 g of active compound/ha): 0%; herbicidal effect (%) ([1]; Capsella bursa-pastoris/57 d, 10880 g of active compound/ha): 0%; herbicidal effect (%) ([2]; Trifolium repens/7 d, 5440 g of active compound/ha): 59%; herbicidal effect (%) ([2]; Trifolium repens/7 d, 8160 g of active compound/ha): 73%; herbicidal effect (%) ([2]; Trifolium repens/7 d, 10880 g of active compound/ha): 75%; herbicidal effect (%) ([2]; Trifolium repens/16 d, 5440 g of active compound/ha): 9%; herbicidal effect (%) ([2]; Trifolium repens/16 d, 8160 g of active compound/ha): 13%; herbicidal effect (%) ([2]; Trifolium repens/16 d, 10880 g of active compound/ha): 23%; herbicidal effect (%) ([2]; Trifolium repens/26 d, 5440 g of active compound/ha): 0%; herbicidal effect (%) ([2]; Trifolium repens/26 d, 8160 g of active compound/ha): 0%; herbicidal effect (%) ([2]; Trifolium repens/26 d, 10880 g of active compound/ha): 0%; herbicidal effect (%) ([2]; Trifolium repens/59 d, 5440 g of active compound/ha): 0%; herbicidal effect (%) ([2]; Trifolium repens/59 d, 8160 g of active compound/ha): 0%; herbicidal effect (%) ([2]; Trifolium repens/59 d, 10880 g of active compound/ha): 0%; herbicidal effect (%) ([3]; Chenopodium album/6 d, 5440 g of active compound/ha): 20%; herbicidal effect (%) ([3]; Chenopodium album/6 d, 8160 g of active compound/ha): 50%; herbicidal effect (%) ([3]; Chenopodium album/6 d, 10880 g of active compound/ha): 60%; herbicidal effect (%) ([3]; Chenopodium album/16 d, 5440 g of active compound/ha): 48%; herbicidal effect (%) ([3]; Chenopodium album/16 d, 8160 g of active compound/ha): 63%; herbicidal effect (%) ([3]; Chenopodium album/16 d, 10880 g of active compound/ha): 63%; herbicidal effect (%) ([3]; Chenopodium album/30 d, 5440 g of active compound/ha): 55%; herbicidal effect (%) ([3]; Chenopodium album/30 d, 8160 g of active compound/ha): 58%; herbicidal effect (%) ([3]; Chenopodium album/30 d, 10880 g of active compound/ha): 70%; herbicidal effect (%) ([3]; Chenopodium album/57 d, 5440 g of active compound/ha): 0%; herbicidal effect (%) ([3]; Chenopodium album/57 d, 8160 g of active compound/ha): 0%; herbicidal effect (%) ([3]; Chenopodium album/57 d, 10880 g of active compound/ha): 0%; herbicidal effect (%) ([3]; Chenopodium album/78 d, 5440 g of active compound/ha): 0%; herbicidal effect (%) ([3]; Chenopodium album/78 d, 8160 g of active compound/ha): 0%; herbicidal effect (%) ([3]; Chenopodium album/78 d, 10880 g of active compound/ha): 0%; herbicidal effect (%) ([4]; Senecio vulgaris/6 d, 5440 g of active compound/ha): 26%; herbicidal effect (%) ([4]; Senecio vulgaris/6 d, 8160 g of active compound/ha): 29%; herbicidal effect (%) ([4]; Senecio vulgaris/6 d, 10880 g of active compound/ha): 29%; herbicidal effect (%) ([4]; Senecio vulgaris/28 d, 5440 g of active compound/ha): 9%; herbicidal effect (%) ([4]; Senecio vulgaris/28 d, 10880 g of active compound/ha): 11%; herbicidal effect (%) ([4]; Senecio vulgaris/58 d, 10880 g of active compound/ha): 33%; herbicidal effect (%) ([5]; Setaria viridis/6 d, 5440 g of active compound/ha): 13%; herbicidal effect (%) ([5]; Setaria viridis/6 d, 8160 g of active compound/ha): 35%; herbicidal effect (%) ([5]; Setaria viridis/6 d, 10880 g of active compound/ha): 40%; herbicidal effect (%) ([5]; Setaria viridis/16 d, 5440 g of active compound/ha): 43%; herbicidal effect (%) ([5]; Setaria viridis/16 d, 8160 g of active compound/ha): 45%; herbicidal effect (%) ([5]; Setaria viridis/16 d, 10880 g of active compound/ha): 48%; herbicidal effect (%) ([5]; Setaria viridis/30 d, 5440 g of active compound/ha): 53%; herbicidal effect (%) ([5]; Setaria viridis/30 d, 8160 g of active compound/ha): 53%; herbicidal effect (%) ([5]; Setaria viridis/30 d, 10880 g of active compound/ha): 53%; herbicidal effect (%) ([5]; Setaria viridis/57 d, 5440 g of active compound/ha): 0%; herbicidal effect (%) ([5]; Setaria viridis/57 d, 8160 g of active compound/ha): 0%; herbicidal effect (%) ([5]; Setaria viridis/57 d, 10880 g of active compound/ha): 0%; herbicidal effect (%) ([5]; Setaria viridis/78 d, 5440 g of active compound/ha): 0%; herbicidal effect (%) ([5]; Setaria viridis/78 d, 8160 g of active compound/ha): 0%; herbicidal effect (%) ([5]; Setaria viridis/78 d, 10880 g of active compound/ha): 0%; herbicidal effect (%) ([6]; Lolium multiflorum/5 d, 5440 g of active compound/ha): 3%; herbicidal effect (%) ([6]; Lolium multiflorum/5 d, 10880 g of active compound/ha): 13%; herbicidal effect (%) ([6]; Lolium multiflorum/18 d, 5440 g of active compound/ha): 0%; herbicidal effect (%) ([6]; Lolium multiflorum/18 d, 8160 g of active compound/ha): 0%; herbicidal effect (%) ([6]; Lolium multiflorum/18 d, 10880 g of active compound/ha): 0%; herbicidal effect (%) ([6]; Lolium multiflorum/32 d, 5440 g of active compound/ha): 0%; herbicidal effect (%) ([6]; Lolium multiflorum/32 d, 8160 g of active compound/ha): 0%; herbicidal effect (%) ([6]; Lolium multiflorum/32 d, 10880 g of active compound/ha): 0%; herbicidal effect (%) ([6]; Lolium multiflorum/61 d, 5440 g of active compound/ha): 0%; herbicidal effect (%) ([6]; Lolium multiflorum/61 d, 8160 g of active compound/ha): 0%; herbicidal effect (%) ([6]; Lolium multiflorum/61 d, 10880 g of active compound/ha): 0%
